Reference: article PMC9597602, “Metal Complexes as Antifungals? From a Crowd-Sourced Compound Library to the First In Vivo Experiments” (JACS Au, 2022)
Like-named read-outs stand apart in the source and are kept apart here.

Legend:
[1] = test system: Candida albicans ATCC 90028 NCCLS11; experiment: Antifungal MIC assay; assay type: cell-based; details: for MIC: Candida albicans, ATCC90028, comparator antifungals, read-out: MIC* Candida albicans ATCC 90028; for MIC Ca: initial CO-ADD dose-response screening, ≥80% growth inhibition
Description: For the fungal assays, both fungi (yeast) strains were cultured for 3 days on Yeast Extract-Peptone Dextrose (YPD; Becton Dickinson 242720) agar at 30 °C. A yeast suspension of 1 × 10^6 to 5 × 10^6 CFU/mL (as determined by OD530) was prepared from five colonies from the agar plates, subsequently diluted with Yeast Nitrogen Base media (YNB; Becton Dickinson 233520), and added to each well of the compound containing plates (384-well plates, NBS; Corning CLS3640), giving a final cell density of 2.5 × 10^3 CFU/mL and a total volume of 50 μL. Plates were covered and incubated at 35 °C for 36 h without shaking. […] […], equivalent to ″optically clear-to-slightly hazy″ or MIC score of 0–1 as per CLSI guidelines M27 Reference Method for Broth Dilution Antifungal Susceptibility Testing of Yeasts. […] Fluconazole (Sigma F8929) was used as internal control on each plate for all strains. All compounds were tested as two technical replicates in two to four independent biological assays, n = 4–8 final data.

[2] = test system: Candida auris CBS12373 KCTC 17810; experiment: Antifungal MIC assay, extended panel; assay type: cell-based; details: Candidozyma auris, comparator antifungals, read-out: MIC* Candida auris CBS12373
Description: (§1) For the fungal assays, both fungi (yeast) strains were cultured for 3 days on Yeast Extract-Peptone Dextrose (YPD; Becton Dickinson 242720) agar at 30 °C. A yeast suspension of 1 × 10^6 to 5 × 10^6 CFU/mL (as determined by OD530) was prepared from five colonies from the agar plates, subsequently diluted with Yeast Nitrogen Base media (YNB; Becton Dickinson 233520), and added to each well of the compound containing plates (384-well plates, NBS; Corning CLS3640), giving a final cell density of 2.5 × 10^3 CFU/mL and a total volume of 50 μL. Plates were covered and incubated at 35 °C for 36 h without shaking. […] MIC […] Reference Method for Broth Dilution Antifungal Susceptibility Testing of Yeasts. […] Fluconazole (Sigma F8929) was used as internal control on each plate for all strains. All compounds were tested as two technical replicates in two to four independent biological assays, n = 4–8 final data.

[3] = test system: Candida auris CBS10913 JCM 15448; experiment: Antifungal MIC assay, extended panel; assay type: cell-based; details: Candidozyma auris, comparator antifungals, read-out: MIC* Candida auris CBS10913
Description: as §1

[4] = test system: Cryptococcus neoformans H99 ATCC 208821 type strain; experiment: Antifungal MIC assay; assay type: cell-based; details: for MIC: Cryptococcus neoformans, ATCC208821, comparator antifungals, read-out: MIC* Cryptococcus neoformans ATCC 208821; for MIC Cn: initial CO-ADD dose-response screening, ≥80% growth inhibition
Description: (§2) For the fungal assays, both fungi (yeast) strains were cultured for 3 days on Yeast Extract-Peptone Dextrose (YPD; Becton Dickinson 242720) agar at 30 °C. A yeast suspension of 1 × 10^6 to 5 × 10^6 CFU/mL (as determined by OD530) was prepared from five colonies from the agar plates, subsequently diluted with Yeast Nitrogen Base media (YNB; Becton Dickinson 233520), and added to each well of the compound containing plates (384-well plates, NBS; Corning CLS3640), giving a final cell density of 2.5 × 10^3 CFU/mL and a total volume of 50 μL. Plates were covered and incubated at 35 °C for 36 h without shaking. […] MIC values were recorded as the lowest concentration at which the growth was inhibited by ≥80%, equivalent to ″optically clear-to-slightly hazy″ or MIC score of 0–1 as per CLSI guidelines M27 Reference Method for Broth Dilution Antifungal Susceptibility Testing of Yeasts. […] Fluconazole (Sigma F8929) was used as internal control on each plate for all strains. All compounds were tested as two technical replicates in two to four independent biological assays, n = 4–8 final data.

[5] = test system: Cryptococcus deuterogattii ATCC 32609 VGII; experiment: Antifungal MIC assay, extended panel; assay type: cell-based; details: Cryptococcus deuterogattii, ATCC32609, comparator antifungals
Description: as §2

[6] = test system: Candida tropicalis ATCC 750; experiment: Antifungal MIC assay, extended panel; assay type: cell-based; details: Candida tropicalis, ATCC750, comparator antifungals
Description: as §2

[7] = test system: Candida glabrata ATCC 90030 NCCLS 84; experiment: Antifungal MIC assay, extended panel; assay type: cell-based; details: Nakaseomyces glabratus, ATCC90030, comparator antifungals
Description: as §2

[8] = test system: Cryptococcus deuterogattii CBS7750 VGII; Serotype B; experiment: Antifungal MIC assay, extended panel; assay type: cell-based; details: Cryptococcus deuterogattii, CBS7750, comparator antifungals
Description: as §2

human red blood cells = assay type: cell-based; details: initial CO-ADD screening, 1 h; 10% hemolysis
Description: Human whole blood (Australian Red Cross) was washed three times with 3 vol of 0.9% NaCl and resuspended in a concentration of 0.5 × 10^8 cells/mL, determined by a manual cell count in a Neubauer hemocytometer. […] After incubation, the plates were centrifuged at 1000g for 10 min to pellet cells and debris; 25 μL of the supernatant was then transferred to reading plates (384-well, polystyrene plated (PS), Corning CLS3680), with hemolysis determined by measuring the supernatant absorbance at […] (OD405) using cells without inhibitors as negative control and cells with 1% Triton X-100 (Sigma T8787) as positive control. […] Melittin (Sigma M2272) was used as internal control on each plate.

[9] = test system: methicillin-resistant Staphylococcus aureus ATCC 43300; experiment: CO-ADD antibacterial MIC assay; assay type: cell-based; details: initial CO-ADD dose-response screening; ≥80% growth inhibition
Description: (§3) For the all the bacterial assays, each bacterial strain was cultured in cation-adjusted Mueller Hinton broth (CAMHB; Bacto Laboratories 212322) at 37 °C overnight. A sample of each culture was then diluted 40-fold in fresh CAMHB and incubated at 37 °C for 1.5–3 h. The resultant mid-log phase cultures were diluted with CAMHB (CFU/mL measured by OD600) and then added to each well of the compound-containing plates (384-well non-binding surface (NBS) plates; Corning CLS3640), giving a cell density of 5 × 10^5 CFU/mL and a total volume of 50 μL. Plates were covered and incubated at 37 °C for 18 h without shaking. Inhibition of bacterial growth was determined by measuring the absorbance at 600 nm (OD600) using media only as negative control and bacteria without inhibitors as positive control. MIC values were determined as the lowest concentration at which the growth was inhibited by ≥80% (equivalent to no visible growth by the eye). Colistin sulfate (Sigma C4461) and vancomycin HCl (Sigma 861987) were used as internal controls on each plate for Gram-negative and Gram-positive bacteria, respectively. All compounds were tested as two technical replicates in two independent biological assays, n = 4 final data.

[10] = test system: Acinetobacter baumannii ATCC 19606 type strain; experiment: CO-ADD antibacterial MIC assay; assay type: cell-based; details: initial CO-ADD dose-response screening; ≥80% growth inhibition
Description: as §3

[11] = test system: Escherichia coli ATCC 25922 FDA control strain; experiment: CO-ADD antibacterial MIC assay; assay type: cell-based; details: initial CO-ADD dose-response screening; ≥80% growth inhibition
Description: as §3

[12] = test system: Pseudomonas aeruginosa ATCC 27853 QC control strain; experiment: CO-ADD antibacterial MIC assay; assay type: cell-based; details: initial CO-ADD dose-response screening; ≥80% growth inhibition
Description: as §3

[13] = test system: HEK-293 human embryonic kidney cells ATCC CRL-1573; details: read-out: HEK CC50; initial CO-ADD screening, 20 h
Description: The cells were incubated together with the compounds for 20 h at 37 °C in 5% CO2. […] Tamoxifen (Sigma T5648) was used as internal control on each plate.

[14] = ≥80% inhibition, converted with MW of Table S12

| MIC Ca [1] | MIC Cn [4] | MIC MRSA (Sa) [9] | MIC Ab [10] | MIC Ec [11] | MIC Pa [12] | SMILES | RBC HC10 (human red blood cells) | CC50 [13] | also measured |
| --- | --- | --- | --- | --- | --- | --- | --- | --- | --- |
| – | – | – | – | – | – | C[C@@H]1[C@H](O)[C@@H](C)/C=C/C=C/C=C/C=C/C=C/C=C/C=C/[C@H](O[C@@H]2O[C@H](C)[C@@H](O)[C@H](N)[C@@H]2O)C[C@@H]2O[C@](O)(C[C@@H](O)C[C@@H](O)[C@H](O)CC[C@@H](O)C[C@@H](O)CC(=O)O[C@H]1C)C[C@H](O)[C@H]2C(=O)O [Amphotericin B, reference compound] | – | – | MIC ([1]; MIC = ≥80% inhibition): 0.125 to 1 µg/mL; MIC [1, 14]: 0.192 to 1.53 µM; MIC ([2]; MIC = ≥80% inhibition): > 128 µg/mL; MIC [2, 14]: ≥ 196 µM; MIC ([3]; MIC = ≥80% inhibition): 16 µg/mL; MIC [3, 14]: 24.5 µM; MIC ([4]; MIC = ≥80% inhibition): 2 to 8 µg/mL; MIC [4, 14]: 3.01 to 12.3 µM; MIC ([5]; MIC = ≥80% inhibition): 4 to 16 µg/mL; MIC [5, 14]: 6.13 to 24.5 µM; MIC ([6]; MIC = ≥80% inhibition): 2 to 4 µg/mL; MIC [6, 14]: 3.01 to 6.13 µM; MIC ([7]; MIC = ≥80% inhibition): ≥ 64 µg/mL; MIC [7, 14]: ≥ 98.2 µM; MIC ([8]; MIC = ≥80% inhibition): 1 to 8 µg/mL; MIC [8, 14]: 1.53 to 12.3 µM |
| > 20 µM | 5 µM | 10 µM | > 20 µM | > 20 µM | > 20 µM | O=C([O][Eu]([O]C(=O)c1cc(F)ccc1F)[O]C(=O)c1cc(F)ccc1F)c1cc(F)ccc1F.c1ccc(-c2ccnc3c2ccc2c(-c4ccccc4)ccnc23)cc1 [Eu-S1] | > 20 µM | > 20 µM | – |
| > 20 µM | 20 µM | > 20 µM | > 20 µM | > 20 µM | > 20 µM | O=C([O][Eu]([O]C(=O)c1ccc(F)cc1F)[O]C(=O)c1ccc(F)cc1F)c1ccc(F)cc1F.c1cnc2c(c1)ccc1cccnc12 [Eu-S5] | 0.5 µM | 13.6 µM | – |
